Patent US4096259A, “Non-amphetaminic psychostimulating compositions of 1,4-disubstituted piperazines” (priority 1975, dated 1978)

Assays:
[1] = test system: exploration response in mice; test: Psychostimulating activity: increase of exploration response in mice (actimetry); type: in vivo; conditions: Mus musculus, po, per os, dose which increases exploration response by 50%
Source text: The psychostimulating activity was studied by determining the dose which increases the exploration response in mice (actimetry) by 50% (ED50),according to the method described by BOISSIER J.R. and SIMON P. (Arc. Int. Pharmacolyn, 1965, 212-221158).

[2] = Acute toxicity (LD50) in mice, per os; conditions: mouse, in vivo, po
Source text: Acute toxicity was studied by determining the LD50 in mice, the derivatives being administered per os.

[3] = test system: sleep in mice; test: Anti-sleep activity in mice; type: in vivo
[4] = test system: dog cardiovascular system; test: Secondary action on the dog cardiovascular system, intravenous; type: in vivo; conditions: intravenous administration
[5] = test system: mortality with pentetrazole in mice; test: Potentiation of mortality with pentetrazole in mice; type: in vivo; conditions: per os
[6] = test system: ptose with reserpine in mice; test: Ptose antagonism with reserpine in mice; type: in vivo; conditions: Mus musculus, po, per os
[7] = Group toxicity (LD50 grouped mice / LD50 isolated mice); conditions: mouse, in vivo
[8] = test system: aggressiveness in mice; test: Aggressiveness in mice in the electric struggle test; type: in vivo; conditions: Mus musculus, po, per os, read-out: increase in aggressiveness in the electric struggle test ED50
[9] = Anorectic action in rats; type: in vivo
[10] = test system: neurotic depression, neurasthenia and school overwork; test: Clinical test in neurotic depression, neurasthenia and school overwork; type: in vivo, adults; conditions: 30 mg daily oral, one month
Procedure: By way of example, clinical tests were carried out on derivatives N° 5 and 21.
Derivative N° 5 was administered at a dose of 30 mg daily in three oral administrations of 10 mg to 6 adults treated for neurotic depression, neurasthenia and school overwork. The following results were obtained after treatment for one month: […]

[11] = Chronic toxicity in rats, oral; type: in vivo; conditions: oral, 80 mg/kg daily, 6 out of 7 days
[12] = test system: rat isolated duodenum; test: In vitro papaverine spasmolytic activity: duodenum contractions in rats induced by barium chloride; conditions: for Spasmolytic activity (papaverine hydrochloride = 1): in vitro, rat duodenum, barium chloride, relative to papaverine hydrochloride = 1
Procedure: The papaverine spasmolytic activity was measured "in vitro" by the concentration ratio: active principle/papaverine hydrochloride concentration, which reduces duodenum contractions in rats, induced by barium chloride, by 50% according to the method of POMARET J. C., SERGANT - ODY M., POURRIAS B. and HUGUET G. (Therapie, 1969, 24, 109-143).
(§1) Table V below gives, by way of example, the complementary pharmacological activities such as antiserotonin, adrenolytic and atropinic activities for derivatives N° 21, 23 and 33, the spasmolytic activity of which is the greatest for the rat isolated duodenum.

[13] = test system: Guinea-pig seminal vesicle; test: In vitro adrenolytic action on the Guinea-pig seminal vesicle; conditions: Yohimbine hydrochloride = 1
Source text: as §1

[14] = test system: rabbit isolated ear; test: In vitro spasmolytic action on the rabbit isolated ear; conditions: papaverine hydrochloride = 1
Source text: as §1

[15] = test system: Guinea-pig ileum; test: In vitro atropinic action on the Guinea-pig ileum; conditions: Atropine sulfate = 1
Source text: as §1

[16] = test system: rabbit aorta; test: In vitro spasmolytic action on the rabbit aorta; conditions: papaverine hydrochloride = 1
Source text: as §1

[17] = test system: paw vessels of the dog; test: In vivo spasmolytic action on paw vessels of the dog; conditions: papaverine hydrochloride = 1
Source text: as §1

Structure (SMILES) | ED50 [1] | LD50 [2] | Spasmolytic activity (papaverine hydrochloride = 1) [12] | further results
O=C(O)CN1CCN(CCOC(c2ccccc2)c2ccccc2)CC1 [Derivative 1] | 400 mg/kg | > 1600 mg/kg | – | –
O=C(O)CCN1CCN(CCOC(c2ccccc2)c2ccccc2)CC1 [Derivative 2] | 80 mg/kg | 2250 mg/kg | – | Anti-sleep activity in mice [3]: Nil; secondary action on the dog cardiovascular system [4]: devoid of any secondary action; Potentiation of mortality with pentetrazole in mice ED50 [5]: 320 mg/kg; ED50 [6]: 55 mg/kg; selectivity ratio [7]: 0.6
O=C(O)CCCN1CCN(CCOC(c2ccccc2)c2ccccc2)CC1 [Derivative 3] | 80 mg/kg | 1500 mg/kg | – | Anti-sleep activity in mice [3]: Nil; secondary action on the dog cardiovascular system [4]: devoid of any secondary action; Potentiation of mortality with pentetrazole in mice ED50 [5]: > 300 mg/kg; ED50 [6]: 160 mg/kg; selectivity ratio [7]: 1.25
O=C(O)CN1CCN(CCOC(c2ccccc2)c2ccc(F)cc2)CC1 (stereo not drawn) [Derivative 4] | 60 mg/kg | 1600 mg/kg | – | –
O=C(O)CCN1CCN(CCOC(c2ccccc2)c2ccc(F)cc2)CC1 (stereo not drawn) [Derivative 5] | 22 mg/kg | 800 mg/kg | – | ED50 [8]: 6.5 mg/kg; Anti-sleep activity in mice [3]: Nil; anorectic action in rats [9]: absence of anorectic action; secondary action on the dog cardiovascular system [4]: devoid of any secondary action; Potentiation of mortality with pentetrazole in mice ED50 [5]: 160 mg/kg; ED50 [6]: 100 mg/kg; presence of a psychostimulating action ([10]; 6 adults): 5 out of 6; Nil results, number of cases ([10]; neurasthenia (1 case)): 1 cases; Excellent results, number of cases ([10]; neurotic depression (2 cases)): 1 cases; Good results, number of cases ([10]; neurotic depression (2 cases)): 1 cases; Excellent results, number of cases ([10]; school overwork (3 cases)): 2 cases; Good results, number of cases ([10]; school overwork (3 cases)): 1 cases; selectivity ratio [7]: 0.6; chronic toxicity [11]: low chronic toxicity; tolerance in chronic administration [11]: well tolerated
O=C(O)CCN1CCN(CCOC(c2ccccc2)c2cccc(C(F)(F)F)c2)CC1 (stereo not drawn) [Derivative 6] | 200 mg/kg | 1200 mg/kg | – | –
COc1ccccc1C(OCCN1CCN(CCC(=O)O)CC1)c1ccccc1 (stereo not drawn) [Derivative 7] | > 400 mg/kg | 1400 mg/kg | – | –
O=C(O)CCN1CCN(CCOC(c2ccccc2)c2ccc(Cl)cc2)CC1 (stereo not drawn) [Derivative 8] | 30 mg/kg | 1000 mg/kg | – | –
Cc1ccc(C(OCCN2CCN(CCC(=O)O)CC2)c2ccccc2)cc1 (stereo not drawn) [Derivative 9] | 100 mg/kg | 1400 mg/kg | – | –
COc1cc(C(OCCN2CCN(CCC(=O)O)CC2)c2ccccc2)cc(OC)c1OC (stereo not drawn) [Derivative 10] | > 400 mg/kg | > 1600 mg/kg | – | –
O=C(O)CCN1CCN(CCOC(c2ccc(F)cc2)c2ccc(F)cc2)CC1 [Derivative 11] | 30 mg/kg | 700 mg/kg | 0,1 | –
O=C(O)CCCN1CCN(CCOC(c2ccccc2)c2ccc(F)cc2)CC1 (stereo not drawn) [Derivative 12] | 35 mg/kg | 1200 mg/kg | 0,1 | –
O=C(O)CCCCN1CCN(CCOC(c2ccccc2)c2ccc(F)cc2)CC1 (stereo not drawn) [Derivative 13] | 35 mg/kg | 1400 mg/kg | – | –
COC(=O)CCCCN1CCN(CCOC(c2ccc(F)cc2)c2ccc(F)cc2)CC1 [Derivative 14] | 45 mg/kg | 500 mg/kg | 3,5 | –
CCOC(=O)CN1CCN(CCOC(c2ccc(F)cc2)c2ccc(F)cc2)CC1 [Derivative 15] | 40 mg/kg | 1200 mg/kg | 6,5 | –
CCOC(=O)CCN1CCN(CCOC(c2ccccc2)c2ccccc2)CC1 [Derivative 16] | 100 mg/kg | 2000 mg/kg | 1,5 | Anti-sleep activity in mice [3]: Nil; secondary action on the dog cardiovascular system [4]: devoid of any secondary action; Potentiation of mortality with pentetrazole in mice ED50 [5]: > 400 mg/kg; ED50 [6]: 190 mg/kg; selectivity ratio [7]: 0.8
CCOC(=O)CCN1CCN(CCOC(c2ccccc2)c2ccccc2Cl)CC1 (stereo not drawn) [Derivative 17] | > 200 mg/kg | 1600 mg/kg | 1,5 | –
CCOC(=O)CCN1CCN(CCOC(c2ccccc2)c2ccc(Cl)cc2)CC1 (stereo not drawn) [Derivative 18] | 30 mg/kg | 1400 mg/kg | 1 | –

Structure (SMILES) | ED50 [1] | LD50 [2] | Spasmolytic activity (papaverine hydrochloride = 1) [12] | further results
CCOC(=O)CCN1CCN(CCOC(c2ccccc2)c2ccc(C)cc2)CC1 (stereo not drawn) [Derivative 19] | > 400 mg/kg | > 1600 mg/kg | 1,5 | –
CCOC(=O)CCN1CCN(CCOC(c2ccccc2)c2ccc([N+](=O)[O-])cc2)CC1 (stereo not drawn) [Derivative 20] | > 400 mg/kg | > 1600 mg/kg | 5,5 | –
CCOC(=O)CCN1CCN(CCOC(c2ccc(C)cc2)c2ccc(F)cc2)CC1 (stereo not drawn) [Derivative 22] | 35 mg/kg | > 1600 mg/kg | 5,5 | –
CCOC(=O)CCCN1CCN(CCOC(c2ccc(F)cc2)c2ccc(F)cc2)CC1 [Derivative 23] | 50 mg/kg | 800 mg/kg | 13,5 | In vitro adrenolytic action on the Guinea-pig seminal vesicle [13]: 3; spasmolytic activity for the rat isolated duodenum (in words) [12]: greatest; In vitro spasmolytic action on the rabbit isolated ear [14]: 0,3; In vitro atropinic action on the Guinea-pig ileum [15]: > 0,01; In vitro spasmolytic action on the rabbit aorta [16]: 3; In vivo spasmolytic action on paw vessels of the dog [17]: 2
CCOC(=O)CCCN1CCN(CCOC(c2ccccc2)c2ccc(F)cc2)CC1 (stereo not drawn) [Derivative 24] | 50 mg/kg | 700 mg/kg | 2,5 | –
CCCCOC(=O)CCN1CCN(CCOC(c2ccc(F)cc2)c2ccc(F)cc2)CC1 [Derivative 25] | 40 mg/kg | 500 mg/kg | 0,5 | –
CCCCCCOC(=O)CCN1CCN(CCOC(c2ccc(F)cc2)c2ccc(F)cc2)CC1 [Derivative 26] | 200 mg/kg | 800 mg/kg | 1 | –
CCOC(=O)CCN1CCN(CCCOC(c2ccccc2)c2ccccc2)CC1 [Derivative 27] | 50 mg/kg | 800 mg/kg | 3,5 | –
CCOC(=O)CCN1CCN(CCCOC(c2ccccc2)c2ccc(F)cc2)CC1 (stereo not drawn) [Derivative 28] | < 100 mg/kg | 800 mg/kg | 6,5 | –
N#CCCN1CCN(CCOC(c2ccccc2)c2ccccc2)CC1 [Derivative 29] | 40 mg/kg | 300 mg/kg | 1 | –
NC(=O)CCN1CCN(CCOC(c2ccccc2)c2ccccc2)CC1 [Derivative 30] | 80 mg/kg | 1000 mg/kg | 0,1 | –
O=C(CN1CCN(CCOC(c2ccccc2)c2ccccc2)CC1)N1CCOCC1 [Derivative 31] | 100 mg/kg | 800 mg/kg | 0,5 | –
COc1ccccc1N1CCN(C(=O)CN2CCN(CCOC(c3ccccc3)c3ccccc3)CC2)CC1 [Derivative 32] | 100 mg/kg | 1200 mg/kg | 2 | –
O=C(CN1CCN(CCOC(c2ccccc2)c2ccccc2)CC1)N1CCN(Cc2ccc3c(c2)OCO3)CC1 [Derivative 33, 1-(piperonylpiperazinocarbonylmethyl)-4-(2-benzhydryloxyethyl)piperazine trimaleate] | 25 mg/kg | 600 mg/kg | 10,5 | In vitro adrenolytic action on the Guinea-pig seminal vesicle [13]: 6; spasmolytic activity for the rat isolated duodenum (in words) [12]: greatest; In vitro spasmolytic action on the rabbit isolated ear [14]: 0,5; In vitro atropinic action on the Guinea-pig ileum [15]: > 0,01; In vitro spasmolytic action on the rabbit aorta [16]: 5; In vivo spasmolytic action on paw vessels of the dog [17]: 9
O=C(CN1CCN(CCOC(c2ccc(F)cc2)c2ccc(F)cc2)CC1)N1CCN(Cc2ccc3c(c2)OCO3)CC1 [Derivative 34] | 160 mg/kg | > 1600 mg/kg | 1,5 | –
CCCC(OCCN1CCN(CCC(=O)O)CC1)c1ccccc1 (stereo not drawn) [Derivative 35] | 60 mg/kg | > 1600 mg/kg | – | –
CCCC(OCCN1CCN(CCC(=O)OCC)CC1)c1ccc(F)cc1 (stereo not drawn) [Derivative 36] | > 100 mg/kg | 1600 mg/kg | 5 | –
